# Test results reported in PubChem BioAssay AID1919007 (Molecular Pharmacology Branch, DTP, NCI, 2023).
# Values joined by “and” are separate entries in the source; they are usually repeats but may differ in a detail not shown here. Identical values can stand only once.
# Test system: A498 complex spheroids with HUVEC/MSC, growth
# Experiment: Anticancer human tumor A498 cell line growth inhibition [AhR];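 note: seven day exposure starting three days after spheroid seeding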;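 for viability, T/C: luminescence signal used as a surrogate for viable cells; luminescence viability scaled so 100% equals DMSO vehicle wells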
# Settings: for viability, T/C: stronger effect = lower value
# Method in brief: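 Spheroids combined tumor cells with HUVEC endothelial cells and human MSCs as stroma. AhR antagonists were paired with standard or investigational drugs, each dosed in half-log steps down from near clinical Cmax, or from 10 microM where Cmax was unknown.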
# [1] = curve of first compound, second compound 0.1 µM
# [2] = curve of first compound, second compound 0.316 µM
# [3] = curve of first compound, second compound 1 µM
# [4] = curve of first compound, second compound 3.16 µM
# [5] = curve of first compound, second compound 10 µM
# [6] = second compound 0.1 µM, first compound 0.00316 µM
# [7] = second compound 0.1 µM, first compound 0.01 µM
# [8] = second compound 0.1 µM, first compound 0.0316 µM
# [9] = second compound 0.1 µM, first compound 0.1 µM
# [10] = second compound 0.316 µM, first compound 0.00316 µM
# [11] = second compound 0.316 µM, first compound 0.01 µM
# [12] = second compound 0.316 µM, first compound 0.0316 µM
# [13] = second compound 0.316 µM, first compound 0.1 µM
# [14] = second compound 1 µM, first compound 0.00316 µM
# [15] = second compound 1 µM, first compound 0.01 µM
# [16] = second compound 1 µM, first compound 0.0316 µM
# [17] = second compound 1 µM, first compound 0.1 µM
# [18] = second compound 3.16 µM, first compound 0.00316 µM
# [19] = second compound 3.16 µM, first compound 0.01 µM
# [20] = second compound 3.16 µM, first compound 0.0316 µM
# [21] = second compound 3.16 µM, first compound 0.1 µM
# [22] = second compound 10 µM, first compound 0.00316 µM
# [23] = second compound 10 µM, first compound 0.01 µM
# [24] = second compound 10 µM, first compound 0.0316 µM
# [25] = second compound 10 µM, first compound 0.1 µM
# [26] = second compound 0.1 µM, first compound 0.316 µM
# [27] = second compound 0.1 µM, first compound 1 µM
# [28] = second compound 0.316 µM, first compound 0.316 µM
# [29] = second compound 0.316 µM, first compound 1 µM
# [30] = second compound 1 µM, first compound 0.316 µM
# [31] = second compound 1 µM, first compound 1 µM
# [32] = second compound 3.16 µM, first compound 0.316 µM
# [33] = second compound 3.16 µM, first compound 1 µM
# [34] = second compound 10 µM, first compound 0.316 µM
# [35] = second compound 10 µM, first compound 1 µM
compound,measurement,setting,value
CCc1c2c(nc3ccc(O)cc13)-c1cc3c(c(=O)n1C2)COC(=O)[C@]3(O)CC + Cc1ccccc1N=Nc1ccc(NC(=O)c2ccnn2C)c(C)c1,IC50,[1],0.0576 µM
same,IC50,[2],0.0711 µM
same,IC50,[3],0.0521 µM
same,IC50,[4],0.0442 µM
same,IC50,[5],0.0604 µM
same,"viability, T/C","second compound 0.1 µM, first compound 0.000949 µM",89.2%
same,"viability, T/C","second compound 0.1 µM, first compound 0.003 µM",78.2%
same,"viability, T/C","second compound 0.1 µM, first compound 0.00949 µM",72.8%
same,"viability, T/C","second compound 0.1 µM, first compound 0.03 µM",55.9%
same,"viability, T/C","second compound 0.1 µM, first compound 0.0949 µM",44.1%
same,"viability, T/C","second compound 0.1 µM, first compound 0.3 µM",38.8%
same,"viability, T/C","second compound 0.316 µM, first compound 0.000949 µM",84.9%
same,"viability, T/C","second compound 0.316 µM, first compound 0.003 µM",83.5%
same,"viability, T/C","second compound 0.316 µM, first compound 0.00949 µM",80.3%
same,"viability, T/C","second compound 0.316 µM, first compound 0.03 µM",61.6%
same,"viability, T/C","second compound 0.316 µM, first compound 0.0949 µM",45.4%
same,"viability, T/C","second compound 0.316 µM, first compound 0.3 µM",45%
same,"viability, T/C","second compound 1 µM, first compound 0.000949 µM",83.1%
same,"viability, T/C","second compound 1 µM, first compound 0.003 µM",85.9%
same,"viability, T/C","second compound 1 µM, first compound 0.00949 µM",78%
same,"viability, T/C","second compound 1 µM, first compound 0.03 µM",58.2%
same,"viability, T/C","second compound 1 µM, first compound 0.0949 µM",38.8%
same,"viability, T/C","second compound 1 µM, first compound 0.3 µM",43.6%
same,"viability, T/C","second compound 3.16 µM, first compound 0.000949 µM",86.9%
same,"viability, T/C","second compound 3.16 µM, first compound 0.003 µM",78.7%
same,"viability, T/C","second compound 3.16 µM, first compound 0.00949 µM",76.2%
same,"viability, T/C","second compound 3.16 µM, first compound 0.03 µM",54.5%
same,"viability, T/C","second compound 3.16 µM, first compound 0.0949 µM",40%
same,"viability, T/C","second compound 3.16 µM, first compound 0.3 µM",34.8%
same,"viability, T/C","second compound 10 µM, first compound 0.000949 µM",84.3%
same,"viability, T/C","second compound 10 µM, first compound 0.003 µM",79.5%
same,"viability, T/C","second compound 10 µM, first compound 0.00949 µM",77.8%
same,"viability, T/C","second compound 10 µM, first compound 0.03 µM",62.2%
same,"viability, T/C","second compound 10 µM, first compound 0.0949 µM",41.4%
same,"viability, T/C","second compound 10 µM, first compound 0.3 µM",39.4%
Cn1ncnc1C1c2n[nH]c(=O)c3cc(F)cc(c23)NC1c1ccc(F)cc1 (configuration not stated) + CC(CO)NC(=O)c1cc(-c2ccc(Cl)cc2)nn(-c2cnn(C)c2)c1=O,IC50,[1],> 0.1 µM
same,IC50,[2],> 0.1 µM
same,IC50,[3],> 0.1 µM
same,IC50,[4],> 0.1 µM
same,IC50,[5],> 0.1 µM
same,"viability, T/C","second compound 0.1 µM, first compound 0.000316 µM",100%
same,"viability, T/C","second compound 0.1 µM, first compound 0.001 µM",102%
same,"viability, T/C",[6],106%
same,"viability, T/C",[7],95.1%
same,"viability, T/C",[8],91.4%
same,"viability, T/C",[9],92.4%
same,"viability, T/C","second compound 0.316 µM, first compound 0.000316 µM",99.5%
same,"viability, T/C","second compound 0.316 µM, first compound 0.001 µM",103%
same,"viability, T/C",[10],101%
same,"viability, T/C",[11],88.5%
same,"viability, T/C",[12],87.6%
same,"viability, T/C",[13],87.8%
same,"viability, T/C","second compound 1 µM, first compound 0.000316 µM",100%
same,"viability, T/C","second compound 1 µM, first compound 0.001 µM",95.7%
same,"viability, T/C",[14],103%
same,"viability, T/C",[15],94.1%
same,"viability, T/C",[16],93.5%
same,"viability, T/C",[17],91.2%
same,"viability, T/C","second compound 3.16 µM, first compound 0.000316 µM",91%
same,"viability, T/C","second compound 3.16 µM, first compound 0.001 µM",94.1%
same,"viability, T/C",[18],92.1%
same,"viability, T/C",[19],80.2%
same,"viability, T/C",[20],77.8%
same,"viability, T/C",[21],79.1%
same,"viability, T/C","second compound 10 µM, first compound 0.000316 µM",74.3%
same,"viability, T/C","second compound 10 µM, first compound 0.001 µM",71.7%
same,"viability, T/C",[22],75.9%
same,"viability, T/C",[23],69%
same,"viability, T/C",[24],68.5%
same,"viability, T/C",[25],67.1%
CC(C)c1c(-c2ccccc2)nc2c(C#N)c[nH]n2c1=O + Cc1cncc(-c2nc(NCCc3c[nH]c4ccccc34)c3ncn(C(C)C)c3n2)c1,IC50,[1],> 10 µM
same,IC50,[2],> 10 µM
same,IC50,[3],> 10 µM
same,IC50,[4],> 10 µM
same,IC50,[5],< 0.0316 µM
same,"viability, T/C",[8],89.4%
same,"viability, T/C",[9],92.7%
same,"viability, T/C",[26],98.5%
same,"viability, T/C",[27],104%
same,"viability, T/C","second compound 0.1 µM, first compound 3.16 µM",100%
same,"viability, T/C","second compound 0.1 µM, first compound 10 µM",94.8%
same,"viability, T/C",[12],103%
same,"viability, T/C",[13],104%
same,"viability, T/C",[28],95.6%
same,"viability, T/C",[29],91%
same,"viability, T/C","second compound 0.316 µM, first compound 3.16 µM",96.9%
same,"viability, T/C","second compound 0.316 µM, first compound 10 µM",98.5%
same,"viability, T/C",[16],92.6%
same,"viability, T/C",[17],95.8%
same,"viability, T/C",[30],95.2%
same,"viability, T/C",[31],88.8%
same,"viability, T/C","second compound 1 µM, first compound 3.16 µM",91.6%
same,"viability, T/C","second compound 1 µM, first compound 10 µM",91.2%
same,"viability, T/C",[20],50.7%
same,"viability, T/C",[21],49.1%
same,"viability, T/C",[32],52.8%
same,"viability, T/C",[33],54.9%
same,"viability, T/C","second compound 3.16 µM, first compound 3.16 µM",49.2%
same,"viability, T/C","second compound 3.16 µM, first compound 10 µM",52.7%
same,"viability, T/C",[24],3%
same,"viability, T/C",[25],4.01%
same,"viability, T/C",[34],4.28%
same,"viability, T/C",[35],3.84%
same,"viability, T/C","second compound 10 µM, first compound 3.16 µM",3.64%
same,"viability, T/C","second compound 10 µM, first compound 10 µM",4.87%
CC1COCCN1c1cc(-c2ccnn2C)c2ccnc(-c3ccn[nH]3)c2n1 (configuration not stated) + Cc1cncc(-c2nc(NCCc3c[nH]c4ccccc34)c3ncn(C(C)C)c3n2)c1,IC50,[1],0.111 µM
same,IC50,[2],0.129 µM
same,IC50,[3],0.105 µM
same,IC50,[4],0.0244 µM
same,IC50,[5],< 0.00316 µM
same,"viability, T/C",[6],94.3%
same,"viability, T/C",[7],102%
same,"viability, T/C",[8],90.6%
same,"viability, T/C",[9],52.5%
same,"viability, T/C",[26],24.5%
same,"viability, T/C",[27],19.4%
same,"viability, T/C",[10],98.5%
same,"viability, T/C",[11],103%
same,"viability, T/C",[12],89%
same,"viability, T/C",[13],57.4%
same,"viability, T/C",[28],26%
same,"viability, T/C",[29],20.5%
same,"viability, T/C",[14],91.3%
same,"viability, T/C",[15],96.8%
same,"viability, T/C",[16],81.5%
same,"viability, T/C",[17],52.2%
same,"viability, T/C",[30],23.5%
same,"viability, T/C",[31],21.4%
same,"viability, T/C",[18],49.4%
same,"viability, T/C",[19],50.1%
same,"viability, T/C",[20],51.4%
same,"viability, T/C",[21],41.2%
same,"viability, T/C",[32],22.8%
same,"viability, T/C",[33],19.5%
same,"viability, T/C",[22],3.71%
same,"viability, T/C",[23],4.4%
same,"viability, T/C",[24],6.04%
same,"viability, T/C",[25],3.64%
same,"viability, T/C",[34],4.9%
same,"viability, T/C",[35],10.9%
Nc1ncn(C2CC(O)C(CO)O2)c(=O)n1 (configuration not stated) + CC(CO)NC(=O)c1cc(-c2ccc(Cl)cc2)nn(-c2cnn(C)c2)c1=O,IC50,[1],> 1 µM
same,IC50,[2],> 1 µM
same,IC50,[3],> 1 µM
same,IC50,[4],> 1 µM
same,IC50,[5],> 1 µM
same,"viability, T/C",[6],96.1%
same,"viability, T/C",[7],91.9%
same,"viability, T/C",[8],88%
same,"viability, T/C",[9],76.1%
same,"viability, T/C",[26],77.8%
same,"viability, T/C",[27],66.7%
same,"viability, T/C",[10],83.7%
same,"viability, T/C",[11],97.2%
same,"viability, T/C",[12],86.2%
same,"viability, T/C",[13],78.2%
same,"viability, T/C",[28],76%
same,"viability, T/C",[29],66.9%
same,"viability, T/C",[14],88.3%
same,"viability, T/C",[15],87%
same,"viability, T/C",[16],88.4%
same,"viability, T/C",[17],75.1%
same,"viability, T/C",[30],75.4%
same,"viability, T/C",[31],67%
same,"viability, T/C",[18],79.7%
same,"viability, T/C",[19],85.7%
same,"viability, T/C",[20],84%
same,"viability, T/C",[21],70.7%
same,"viability, T/C",[32],67.1%
same,"viability, T/C",[33],59.2%
same,"viability, T/C",[22],62%
same,"viability, T/C",[23],67.1%
same,"viability, T/C",[24],67%
same,"viability, T/C",[25],55.8%
same,"viability, T/C",[34],52.8%
same,"viability, T/C",[35],53.6%
Nc1ccn(C2OC(CO)C(O)C2(F)F)c(=O)n1 (configuration not stated),"viability, T/C",compound 0.0316 µM,30.9% and 36.6% and 26.1%
same,"viability, T/C",compound 0.1 µM,35.4% and 37.9% and 25.6%
same,"viability, T/C",compound 0.316 µM,50.1% and 45.6% and 30.7%
same,"viability, T/C",compound 1 µM,43% and 49.6% and 32.6%
same,"viability, T/C",compound 3.16 µM,40.7% and 51.3% and 33%
same,"viability, T/C",compound 10 µM,42.1% (2×) and 29.6%
same,IC50,curve of compound,< 0.0316 µM
